Test results: ChEMBL document CHEMBL1681714, “Organelle-selective energy transfer: a fluorescent indicator of intracellular environment” (Bioorg Med Chem Lett, 2011)

Assays:
Conditions in all cases: 0.5 h
[1] = Drug uptake in rat Clone 9 cells assessed as accumulation in lysosomes after 30 mins by fluorescence microscopy; type: ADME, cell-based
[2] = Drug uptake in rat Clone 9 cells assessed as accumulation in endoplasmic reticulum after 30 mins by fluorescence microscopy; type: ADME, cell-based
[3] = Drug uptake in rat Clone 9 cells assessed as localization to endoplasmic reticulum after 30 mins by fluorescence microscopy; type: ADME, cell-based
[4] = Drug uptake in rat Clone 9 cells assessed as accumulation in cytoplasm after 30 mins by fluorescence microscopy; type: ADME, cell-based
[5] = Drug uptake in rat Clone 9 cells assessed as accumulation in mitochondria after 30 mins by fluorescence microscopy; type: ADME

Measured: Drug uptake

COc1ccccc1C1=[N+]2C(=C(c3ccc(C#Cc4ccc(C5=[N+]6C(=Cc7c(C)c(S(=O)(=O)[O-])c(C)n7[B-]6(F)F)C(=O)N5C)cc4)cc3OCC(=O)O)c3ccc(-c4ccccc4OC)n3[B-]2(F)F)C=C1.[Na+]
Active: [1] | [2] | [3]

COc1cc(C#Cc2ccc3c(c2)C(C)(C)C(/C=C/C=C2/N(CCCCCC(=O)O)c4ccccc4C2(C)C)=[N+]3C)ccc1C1=C2C(C)=CC(C)=[N+]2[B-](F)(F)n2c(C)cc(C)c21.[I-]
not listed: [2]
Active: all other assays above
